# Test results as given in US6589762B1, “Calcafluor screen for chitin biosynthesis inhibitors” (priority 1993, dated 2003).
# Assays:
# Aspergillus nidulans = assay: Calcofluor rescue with filamentous fungus instead of S. cerevisiae; assay type: cell-based; settings: very high calcofluor concentrations
# Text: (§1) Attempts are made to replace S. cerevisiae with several species of filamentous fungi, including Neurospora crassa, Aspergillus nidulans, Botrytis cinerea, Pseudocercosporella herpotrichoides, but all the species respond differently from S. cerevisiae. N. crassa and A. nidulans require very high concentrations of calcofluor to inhibit growth.
# Neurospora crassa = assay: as above; assay type: cell-based; settings: very high calcofluor concentrations
# Text: as §1
# Chs3 = target: T1, Chs3 (Saccharomyces cerevisiae, UniProt P29465); assay: In vitro chitin synthase enzyme assay (incorporation of UDP-14C-N-acetylglucosamine); assay type: biochemical
# T1 construct: To assay Chs3 activity, membranes from cells lacking Chs1 and, preferably, Chs2 are prepared; endogenous in cells; host or cells: S. cerevisiae strains ECY36-3C, JW17-11/1A/FOA or SSY640-10A (crude membrane fraction)
# T1 sequence (P34226 1-693): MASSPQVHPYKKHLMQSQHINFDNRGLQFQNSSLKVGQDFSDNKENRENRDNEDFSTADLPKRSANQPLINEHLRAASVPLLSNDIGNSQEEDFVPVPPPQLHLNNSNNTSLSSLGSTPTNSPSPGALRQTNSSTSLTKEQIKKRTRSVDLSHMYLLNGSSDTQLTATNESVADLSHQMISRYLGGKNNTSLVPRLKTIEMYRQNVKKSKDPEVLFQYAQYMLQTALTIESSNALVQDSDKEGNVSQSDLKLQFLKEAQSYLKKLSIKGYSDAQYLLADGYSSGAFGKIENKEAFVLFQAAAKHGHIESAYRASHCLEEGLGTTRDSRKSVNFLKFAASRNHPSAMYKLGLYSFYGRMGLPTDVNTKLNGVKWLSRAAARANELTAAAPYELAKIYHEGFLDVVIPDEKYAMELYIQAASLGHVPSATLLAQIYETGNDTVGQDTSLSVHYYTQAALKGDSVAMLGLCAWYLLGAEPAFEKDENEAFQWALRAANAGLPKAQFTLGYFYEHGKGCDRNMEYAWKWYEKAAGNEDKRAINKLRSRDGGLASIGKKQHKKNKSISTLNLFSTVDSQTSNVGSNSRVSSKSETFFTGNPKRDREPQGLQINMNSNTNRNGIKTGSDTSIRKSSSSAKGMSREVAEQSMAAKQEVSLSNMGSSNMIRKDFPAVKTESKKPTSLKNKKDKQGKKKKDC
# T1 sequence (P29465 whole entry): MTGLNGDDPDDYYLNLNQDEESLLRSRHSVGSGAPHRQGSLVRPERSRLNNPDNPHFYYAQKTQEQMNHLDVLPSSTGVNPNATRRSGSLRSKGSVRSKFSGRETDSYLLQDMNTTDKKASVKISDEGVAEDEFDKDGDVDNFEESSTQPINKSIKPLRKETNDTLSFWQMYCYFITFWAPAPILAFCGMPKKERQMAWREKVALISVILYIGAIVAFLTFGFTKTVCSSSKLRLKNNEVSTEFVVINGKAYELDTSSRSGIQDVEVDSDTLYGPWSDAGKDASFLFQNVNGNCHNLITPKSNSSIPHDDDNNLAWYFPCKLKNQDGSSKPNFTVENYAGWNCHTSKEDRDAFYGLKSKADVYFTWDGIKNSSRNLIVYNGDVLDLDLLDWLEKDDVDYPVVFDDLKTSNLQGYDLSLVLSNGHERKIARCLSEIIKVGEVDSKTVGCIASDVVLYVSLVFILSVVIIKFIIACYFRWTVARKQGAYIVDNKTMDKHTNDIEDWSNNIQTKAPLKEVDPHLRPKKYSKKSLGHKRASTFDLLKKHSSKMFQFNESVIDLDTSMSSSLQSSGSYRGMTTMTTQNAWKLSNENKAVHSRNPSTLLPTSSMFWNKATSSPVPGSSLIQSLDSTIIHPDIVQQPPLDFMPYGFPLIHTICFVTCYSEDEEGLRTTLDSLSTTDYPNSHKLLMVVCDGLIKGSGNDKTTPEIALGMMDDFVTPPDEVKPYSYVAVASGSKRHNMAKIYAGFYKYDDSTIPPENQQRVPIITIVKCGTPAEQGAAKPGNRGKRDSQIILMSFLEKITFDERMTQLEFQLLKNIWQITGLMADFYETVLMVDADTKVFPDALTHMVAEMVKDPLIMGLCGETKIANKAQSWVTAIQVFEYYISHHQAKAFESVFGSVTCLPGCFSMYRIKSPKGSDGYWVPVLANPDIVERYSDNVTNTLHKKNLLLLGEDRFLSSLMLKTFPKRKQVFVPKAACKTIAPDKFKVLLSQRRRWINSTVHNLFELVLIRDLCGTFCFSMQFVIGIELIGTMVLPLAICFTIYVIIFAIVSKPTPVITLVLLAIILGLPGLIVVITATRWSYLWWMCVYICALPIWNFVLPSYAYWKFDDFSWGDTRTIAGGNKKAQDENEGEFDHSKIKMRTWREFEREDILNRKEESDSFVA
# Method: In Vitro Secondary Screens. These enzyme assays detect inhibition of individual chitin synthase isozymes Chs1, Chs2, and Chs3 by monitoring the incorporation of radioactive chitin precursor uridine diphospho-N-acetyl glucosamine into acid precipitable counts (i.e., chitin).
# To assay Chs3 activity, membranes from cells lacking Chs1 and, preferably, Chs2 are prepared by a modification of the method of Orlean, P. cited above. Strain ECY36-3C, JW17-11/1A/FOA or SSY640-10A are inoculated into YEPD, and the culture is shaken at 30° C. Cells are harvested while still growing exponentially, e.g., at O.D.600 of ˜0.4 as measured in a Guilford Response™ spectrophotometer, washed once in 50 mM Tris-HCl, pH 7.5, containing 0.01 mM EDTA and 1 mM DTT (1,4-dithiothreitol), and resuspended in about 3 volumes of this buffer. Glass beads of about 200 to 300 micron diameter are added to just below the meniscus of the suspension, and cells are shaken by vortexing or in a Bead-Beater™ until lysis occurs, which is monitored microscopically. During this procedure, the cell suspension is kept below 10° C. by cooling in ice. The extract is collected, the glass beads are washed with the same buffer, and the wash is added to the extract. The volume is adjusted to about 20 original volumes with the same buffer.
# The cell walls and debris are removed by a 10 minute centrifugation at about 3000×g. The samples are centriuged at 100,000×g for 40 minutes at 4° C. The membrane pellets are resuspended in about one original volume 50 mM Tris-HCl, pH 7.5 containing 0.01 mM EDTA which may contain 33% glycerol, and subjected to Dounce homogenization.
# Ten μl of membranes are incubated with shaking in the presence of putative inhibitors in a standard 50 μl assay mixture containing 1 mM uridine diphospho-(^14C)-N-acetyl-glucosamine (400,000 cpm/μmole), 40 mM N-acetylglucosamine, 50 mM Tris-HCl, pH 7.5, and 5 mM MgCl2 at 25° C. The reaction is stopped after 90 minutes by addition of 10% trichloroacetic acid, and the amount of product quantified by filtration and scintillation counting.
# [1] = tested on: selected phytopathogenic fungi (Pseudocercosporella herpotrichoides, Rhizoctonia solani, Fusarium oxysporum); assay: In vitro fungicide discovery screen (growth in nutrient agar); assay type: cell-based
# Method: Standard in vitro and in vivo fungicide discovery screens are employed as tertiary tests to prioritize actives from the calcofluor rescue screen and the secondary screens. […] These include fungi causing wheat eyespot (Pseudocercosporella herpotrichoides), rice sheath blight (Rhizoctonia solani) and damping off (Fusarium oxysporum); all synthesize chitin-containing cell walls. High potency fungicides are active against these species in the 10 ppm range (10 μg/ml), while nikkomycin Z can be detected at ˜70 μg/ml in the calcofluor rescue assay if 30 μl volumes are tested in welled plates.
# [2] = tested on: strain ECY36-3D (relies on chitin synthase isozyme 2); assay: In vivo secondary screen, growth of chitin synthase mutant yeast; assay type: cell-based, Saccharomyces cerevisiae; settings: for growth of strain ECY36-3D (in words): strain producing only Chs2
# Text: (§2) One type of calcofluor rescue secondary screen is an in vivo test that assays the effect of compounds on the growth of chitin synthase mutant yeast strains that rely on a single chitin synthase isozyme for survival. A number of these strains have been described, such as the strains that rely on chitin synthase isozymes 2 or 3 described by Shaw, J. A., et al. (J. Cell Biol. 114: 111-123 (1991)) and similar strains described in the Examples section below. In this type of secondary screening test, the test sample added to and incubated in a culture of a mutant yeast strain producing only chitin synthase 2 or 3 (denoted, respectively, Chs2 and Chs3) for such time under such conditions sufficient to observe growth in a corresponding culture containing no test sample. A comparison of the extent of growth in the culture containing test sample with growth in its absence is then made. Inhibition of growth in the presence of test sample indicates inhibition of synthase isozyme produced by the strain. Any type of growth assessment may be employed but, as in the primary calcofluor rescue screen, preferred cultures in the secondary screen are solid, with test samples applied to a disk or well, so that cell growth can be easily determined by visual inspection.
# (§3) Especially preferred in vivo secondary screens employ a pair of genetically related strains, one producing one isozyme, e.g., Chs2, and the other producing a different isozyme, e.g., Chs3. Using pairs allows for the simultaneous determination that culture conditions are appropriate for growth in the absence of inhibition and the identification of which isozyme may be affected by inhibition. The pairs, for example, include the ECY36-3C and ECY36-3D strains described by Shaw, cited above, that produce only Chs3 and Chs 2, respectively, and similar pairs such as SSY640-10A (containing only Chs3) and SSY-638-3B (containing only Chs 2) described in the Examples below. […] In a similar manner, a comparison of differential effects observed in the growth of strain pairs in the presence of a test sample allows for the putative identification of which isozyme is affected by the sample.
# (§4) In Vivo Secondary Screens. The in vivo calcofluor rescue secondary screens assay the differential effect of compounds on the growth of two pairs of yeast strains. Each strain in the pairs, denoted ECY36-3C and ECY36-3D and SSY640-10A and SSY638-3B, is a chitin synthase mutant that relies on the expression of a single chitin synthase isozyme for its survival.
# (§5) Strains ECY36-3C and ECY36-3D are described by Shaw, J. A., et al., cited above. ECY36-3C has the genotype MATa, chs1-23, chs2::LEU2, ura3-52, leu2-3,112, trp1-1 and ECY36-3D has the genotype MATa, chs1-23, ca1^R1 (chs3^−), ura3-52, leu2-3,112, trp1-1. Both strains are segregants from crossing strain ECY33-18A (Mata, chs1-23, ca1^R1, ura3-52, leu2-3,112, trp1-1) and ECY19 Δ22 2-5B (MATα, chs1-23, chs2::LEU2, ura3-52, leu2-3,112, trp1-1) using standard methodology. ECY36-3C relies on the expression of chitin synthase isozyme 3 for survival, and ECY36-3D relies on chitin synthase isozyme 2 (Chs2).
# (§6) Strains ECY36-3C and ECY36-3D are inoculated in SD medium containing nutritional supplements appropriate to strain growth, e.g., containing about 0.01% (w/v) each of uracil, adenine sulfate, leucine, tryptophan, histidine, and lysine. When the cultures reach stationary phase (typically after 24 hours), they are used immediately or stored at 4° C. for up to a week before use. The cultures are diluted 1/100 into YEPD medium containing 2% agar which has been maintained at ˜50° C., immediately poured into petri dishes, and allowed to cool. Test compounds are applied to cellulose filter disks as described in Example 1 above (e.g., nikkomycin Z, 4 μl of a 5 mg/ml solution), and the disks are applied to the agar. Plates are incubated at 30° C. overnight and growth inhibitory zones are measured around the disks after 24 hours. […]
# [3] = tested on: strain ECY36-3C (relies on chitin synthase isozyme 3); assay: as above; assay type: cell-based, Saccharomyces cerevisiae; settings: for growth of strain ECY36-3C (in words): strain producing only Chs3
# Text: as §2, §3, §4, §5, §6
# A.T.C.C. strain S288c = assay: Comparison growth inhibition screen with strain S288c; assay type: cell-based, Saccharomyces cerevisiae; settings: same conditions at the same levels as Table III
# [4] = tested on: Saccharomyces cerevisiae strain Y294; assay: Calcofluor rescue screen (disk or well diffusion); assay type: cell-based; settings: for activity in the calcofluor rescue screen (turbid zone of growth): disk diffusion assay, 20 μg/disk, 30° C., two days
# Method: A preferred method comprises adding a test sample to a Saccharomyces cerevisiae culture containing calcofluor white or a calcofluor white derivative. The test sample is introduced to a disk or a well on a culture plate in a standard diffusion assay using solidified media, or introduced into one of a series of equivalent tissue culture tubes or bottles in a standard turbidity assay using liquid media. The culture is incubated for such time under such conditions sufficient to observe yeast cell growth inhibition in a corresponding culture or culture plate area containing calcofluor white but no test sample. The extent of growth of the culture containing or surrounding the test sample is compared with the extent of growth in the culture or culture area containing no test sample. The presence of chitin synthesis inhibition is determined by observing whether growth in the presence of test sample exceeds growth in its absence. In a culture plate, this is a turbid zone of growth surrounding the test sample. In a culture tube series, this is enhanced turbidity.
# autoclaving at 20 lbs for 15 min. Strain Y294 having genotype MATα leu2-3,112 ura3-52 his3Δ trp1 GAL+[CIR+] inoculated into this liquid media and grown overnight, an OD600 of ˜5 or greater, while being shaken at 30° C.
# The plates are poured and test samples are placed on the plates. A ¼″ disk containing […] of nikkomycin Z is used as a positive control. The plates are incubated at 30° C. for two days and then examined for activity. Actives produce a turbid zone surrounding the test sample.
# All compounds are tested by disk diffusion assay using the method of this invention at a rate of 20 μg/disk.
# [5] = tested on: Pseudocercosporella herpotrichoides; assay: Calcofluor rescue with filamentous fungus instead of S. cerevisiae; assay type: cell-based; settings: does not grow in the media
# Text: as §1
# Botrytis cinerea = assay: as above; assay type: cell-based; settings: does not grow in the media
# Text: as §1
# [6] = tested on: strain SSY638-3B (containing only Chs2); assay: In vivo secondary screen, growth of chitin synthase mutant yeast; assay type: cell-based, Saccharomyces cerevisiae
# Text: as §3, §4
# (§7) Strain SSY640-10A has genotype chs1::HIS3, chs2::TRP1, his3, trp1, ade2, ade3, leu2, lys2, ura3 (possible cmk1Δ 1::HIS3). […]
# [7] = tested on: strain SSY640-10A (containing only Chs3); assay: as above; assay type: cell-based, Saccharomyces cerevisiae
# Text: as §3, §4, §7
# Chs1 = Chs1 (Saccharomyces cerevisiae, UniProt P08004); settings: Cabib, Antimicrob. Agents Chemother. 35: 170-173 (1991); cited from earlier work
# Sequence of Chs1 (P08004 whole entry): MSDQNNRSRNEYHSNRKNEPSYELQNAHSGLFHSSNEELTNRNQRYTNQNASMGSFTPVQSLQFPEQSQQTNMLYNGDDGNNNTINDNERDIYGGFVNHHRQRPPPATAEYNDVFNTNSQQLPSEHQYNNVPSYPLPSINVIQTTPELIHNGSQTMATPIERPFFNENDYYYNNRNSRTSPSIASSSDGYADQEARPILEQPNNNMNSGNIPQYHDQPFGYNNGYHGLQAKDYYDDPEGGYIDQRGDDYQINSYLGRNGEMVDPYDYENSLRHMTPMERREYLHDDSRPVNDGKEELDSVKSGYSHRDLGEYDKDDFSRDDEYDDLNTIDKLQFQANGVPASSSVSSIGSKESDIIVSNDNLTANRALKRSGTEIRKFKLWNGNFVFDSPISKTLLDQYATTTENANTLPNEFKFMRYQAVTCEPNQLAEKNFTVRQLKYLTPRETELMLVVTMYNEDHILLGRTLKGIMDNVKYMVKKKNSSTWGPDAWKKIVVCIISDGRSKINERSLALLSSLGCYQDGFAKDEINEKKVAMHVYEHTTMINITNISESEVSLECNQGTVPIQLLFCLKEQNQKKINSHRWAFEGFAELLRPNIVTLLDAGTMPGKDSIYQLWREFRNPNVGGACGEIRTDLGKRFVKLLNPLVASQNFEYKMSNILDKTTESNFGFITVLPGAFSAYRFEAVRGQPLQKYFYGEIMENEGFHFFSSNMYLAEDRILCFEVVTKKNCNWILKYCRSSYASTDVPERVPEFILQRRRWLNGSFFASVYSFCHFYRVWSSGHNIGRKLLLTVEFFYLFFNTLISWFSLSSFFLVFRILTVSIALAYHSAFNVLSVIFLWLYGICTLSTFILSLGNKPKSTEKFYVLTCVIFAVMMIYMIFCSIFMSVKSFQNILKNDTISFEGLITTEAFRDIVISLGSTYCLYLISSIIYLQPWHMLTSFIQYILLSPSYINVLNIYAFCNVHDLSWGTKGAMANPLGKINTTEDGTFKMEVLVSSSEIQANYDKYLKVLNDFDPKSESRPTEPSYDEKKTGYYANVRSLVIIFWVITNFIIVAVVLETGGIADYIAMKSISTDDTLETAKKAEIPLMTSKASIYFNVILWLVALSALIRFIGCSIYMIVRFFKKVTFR
# [8] = filter disk on YEPD agar, 24 hours, total applied: Nikkomycin Z 25 μg, Test Compound 1 45 μg, Test Compound 2 200 μg
structure (smiles),measurement,setting,value
"Nc1nc(=O)[nH]cc1F [5-F-cytocine, 5-fluoro-cytosine]",growth in calcofluor culture,Aspergillus nidulans,extensive growth
same,growth in calcofluor culture,Neurospora crassa,extensive growth
C[C@@H]([C@H](N)C(=O)N[C@H](C(=O)O)[C@H]1O[C@@H](n2ccc(=O)[nH]c2=O)[C@H](O)[C@@H]1O)[C@H](O)c1ccc(O)cn1 [nikkomycin Z],% Chs3 Activity,Chs3; 1 μM inhibitor,˜80%
same,% Chs3 Activity,Chs3; 2.5 μM inhibitor,˜55%
same,% Chs3 Activity,Chs3; 5 μM inhibitor,˜41%
same,chitin synthase isozyme affected,"Chs3; secondary screening, Chs1, Chs2, Chs3 assays",act preferentially on the Chs3 isozyme
same,activity against phytopathogenic fungi,[1]; 25 μg/ml,weakly active
same,"zone of inhibition, ECY36-3D",[2]; [8],0 mm
same,growth of strain ECY36-3D (in words),[2],unaffected
same,growth of strain ECY36-3D (in words),[2]; listed as Nikkomycin Z,does not inhibit growth
same,differential effect on Chs3-only versus Chs2-only strains,[3]; comparison of strain pairs,inhibits Chs3 to a significantly greater extent than Chs2
same,"zone of inhibition, ECY36-3C",[3]; [8],21 mm
same,growth of strain ECY36-3C (in words),[3],inhibited
same,growth of strain ECY36-3C (in words),[3]; listed as Nikkomycin Z,inhibit the growth
same,growth inhibition of strain S288c,A.T.C.C. strain S288c,no inhibition
same,concentration at which detected in the calcofluor rescue assay,[4]; 30 μl volumes tested in welled plates,~70 µg/mL
same,activity in the calcofluor rescue screen (turbid zone of growth),[4],active
same,growth in calcofluor culture,Aspergillus nidulans,extensive growth
same,rescue from calcofluor,[5],no rescue
same,growth in calcofluor culture,Neurospora crassa,extensive growth
same,rescue from calcofluor,Botrytis cinerea,no rescue
same,growth of strain SSY638-3B (in words),[6],unaffected
same,growth of strain SSY640-10A (in words),[7],inhibited
same,inhibition of Chs1 relative to Chs2,Chs1,inhibit the activity of Chs1 to a much greater extent than Chs2
NC(=O)OC[C@H](O)[C@@H](O)[C@H](N)C(=O)N[C@H](C(=O)O)[C@H]1O[C@@H](n2cc(C(=O)O)c(=O)[nH]c2=O)[C@H](O)[C@@H]1O [polyoxin D],% Chs3 Activity,Chs3; 10 μM inhibitor,100%
same,% Chs3 Activity,Chs3; 30 μM inhibitor,˜40%
same,% Chs3 Activity,Chs3; 90 μM inhibitor,˜16%
same,activity against phytopathogenic fungi,"[1]; 10 μg/ml concentration range, especially against Rhizoctonia",excellent activity
same,activity in the calcofluor rescue screen (turbid zone of growth),[4],inactive
same,growth in calcofluor culture,Aspergillus nidulans,extensive growth
same,rescue from calcofluor,[5],no rescue
same,growth in calcofluor culture,Neurospora crassa,extensive growth
same,rescue from calcofluor,Botrytis cinerea,no rescue
CCC(CC)Nc1c([N+](=O)[O-])cc(C)c(C)c1[N+](=O)[O-] [prowl],growth in calcofluor culture,Aspergillus nidulans,extensive growth
same,growth in calcofluor culture,Neurospora crassa,extensive growth
COC(=O)c1ccccc1S(=O)(=O)NC(=O)Nc1nc(C)cc(C)n1 [sulfometuron methyl],growth in calcofluor culture,Aspergillus nidulans,extensive growth
same,growth in calcofluor culture,Neurospora crassa,extensive growth
